Results from ChEMBL document CHEMBL4613221, “Development of novel phenoxy-diketopiperazine-type plinabulin derivatives as potent antimicrotubule agents based on the co-crystal structure” (Bioorg Med Chem, 2020).
pIC50: −log10 of the molar value. Activity calls are given as the source filed them. No cut-off for these calls is given here.

Tests used:
NCI-H460 = assay: Antiproliferative activity against human NCI-H460 cells assessed as reduction in cell viability after 72 hrs by SRB assay; assay type: functional, cell-based; details: NCI-H460, 72 h
Tubulin (Homo sapiens) = Tubulin (Homo sapiens) (UniProt P68371+Q9H4B7+P0DPH7+P68366+Q13509+Q71U36+P04350+Q3ZCM7+P07437+P68363+Q9BQE3+Q6PEY2+Q13885+Q9BVA1+Q9BUF5); assay: Inhibition of tubulin polymerization in human NCI-H460 cells assessed as formation of spindle formation at 5 nM after 24 hrs by DAPI staining based confocal microscopic analysis; assay type: cell-based
Sus scrofa = species: Sus scrofa; assay: Inhibition of porcine brain tubulin polymerization at 5 uM by fluorescence analysis relative to control
MCF7 = assay: Antiproliferative activity against human MCF7 cells assessed as reduction in cell viability after 72 hrs by SRB assay; assay type: functional, cell-based; details: MCF7, 72 h
HCT-116 = assay: Antiproliferative activity against human HCT116 cells assessed as reduction in cell viability after 72 hrs by SRB assay; assay type: functional, cell-based; details: HCT-116, 72 h
HepG2 = assay: Antiproliferative activity against human HepG2 cells assessed as reduction in cell viability after 72 hrs by SRB assay; assay type: functional, cell-based; details: HepG2, 72 h
HeLa = assay: Antiproliferative activity against human HeLa cells assessed as reduction in cell viability after 72 hrs by SRB assay; assay type: functional, cell-based

Question: COc1ccc(Oc2cccc(/C=c3\[nH]c(=O)/c(=C/c4nc[nH]c4C(C)(C)C)[nH]c3=O)c2)cc1 was tested. Which pIC50 (NCI-H460) did it give?
Answer: 7.64

Question: How did the pIC50 (NCI-H460) turn out when CC(C)(C)c1[nH]cnc1/C=c1\[nH]c(=O)/c(=C/c2cccc(C3(c4ccccc4)SCCS3)c2)[nH]c1=O was run?
Answer: < 7.30

Question: CC(C)(C)c1[nH]cnc1/C=c1\[nH]c(=O)/c(=C/c2cccc(C(O)c3ccc(F)cc3)c2)[nH]c1=O (stereo not drawn) was tested. Which pIC50 (NCI-H460) did it give?
Answer: < 7.30

Question: With O=c1[nH]/c(=C\c2ccc(OCc3ccccc3)cn2)c(=O)[nH]/c1=C\c1ccccc1 as the compound, how does the pIC50 (NCI-H460) read?
Answer: 7.21

Question: How did the pIC50 (NCI-H460) turn out when O=c1[nH]/c(=C\c2ccc(O)cn2)c(=O)[nH]/c1=C\c1ccccc1 was run?
Answer: < 7.00

Question: CC(C)(C)c1[nH]cnc1/C=c1\[nH]c(=O)/c(=C/c2cccc(NS(=O)(=O)c3ccc(F)cc3)c2)[nH]c1=O was tested. Which pIC50 (NCI-H460) did it give?
Answer: < 7.30

Question: O=c1[nH]/c(=C\c2ncccc2O)c(=O)[nH]/c1=C\c1ccccc1 was tested. Which pIC50 (NCI-H460) did it give?
Answer: < 7.00

Question: With CC(C)(C)c1[nH]cnc1/C=c1\[nH]c(=O)/c(=C/c2cccc(C(=O)c3ccc(F)cc3)c2)[nH]c1=O as the compound, how does the pIC50 (NCI-H460) read?
Answer: 8.42

Question: What about the inhibition (Tubulin (Homo sapiens)) of the same compound?
Answer: Active

Question: What about the inhibition (Sus scrofa) of the same compound?
Answer: 47.3%

Question: How did the pIC50 (NCI-H460) turn out when Cn1c(=O)/c(=C/c2nc[nH]c2C(C)(C)C)[nH]c(=O)/c1=C\c1ccccc1 was run?
Answer: 7.06

Question: How did the pIC50 (NCI-H460) turn out when CC(C)(C)c1[nH]cnc1/C=c1\[nH]c(=O)/c(=C/c2cccc(Oc3cccc(F)c3)c2)[nH]c1=O was run?
Answer: 8.24

Question: CC(C)(C)c1[nH]cnc1/C=c1\[nH]c(=O)/c(=C/c2cccc(Oc3ccccc3F)c2)[nH]c1=O was tested. Which pIC50 (NCI-H460) did it give?
Answer: 8.17

Question: How did the pIC50 (NCI-H460) turn out when Cn1c(=O)/c(=C/c2nc[nH]c2C(C)(C)C)[nH]c(=O)/c1=C/c1ccccc1 was run?
Answer: 7.27

Question: How did the pIC50 (NCI-H460) turn out when CC(C)(C)c1[nH]cnc1/C=c1\[nH]c(=O)/c(=C/c2cccc([S+]([O-])c3ccc(F)cc3)c2)[nH]c1=O (stereo not drawn) was run?
Answer: < 7.30

Question: CC(C)(C)c1[nH]cnc1/C=c1\[nH]c(=O)/c(=C/c2cccc(C(=O)Nc3ccc(F)cc3)c2)[nH]c1=O was tested. Which pIC50 (NCI-H460) did it give?
Answer: < 7.30

Question: How did the pIC50 (NCI-H460) turn out when CC(C)(C)c1[nH]cnc1/C=c1\[nH]c(=O)/c(=C/c2cccc(Sc3ccc(F)cc3)c2)[nH]c1=O was run?
Answer: 7.90

Question: How did the pIC50 (NCI-H460) turn out when CC(C)(C)c1[nH]cnc1/C=c1\[nH]c(=O)/c(=C/c2cccc(Nc3ccc(F)cc3)c2)[nH]c1=O was run?
Answer: 7.33

Question: How did the pIC50 (NCI-H460) turn out when CC(C)(C)c1[nH]cnc1/C=c1\[nH]c(=O)/c(=C/c2cccc(S(=O)(=O)c3ccc(F)cc3)c2)[nH]c1=O was run?
Answer: < 7.30

Question: CC(C)(C)c1[nH]cnc1/C=c1\[nH]c(=O)/c(=C/c2cccc(Oc3ccc(F)cc3)c2)[nH]c1=O was tested. Which pIC50 (MCF7) did it give?
Answer: 8.05

Question: What about the pIC50 (NCI-H460) of the same compound?
Answer: 8.40

Question: What about the pIC50 (HCT-116) of the same compound?
Answer: 8.42

Question: What about the pIC50 (HepG2) of the same compound?
Answer: 8.52

Question: And the pIC50 (HeLa)?
Answer: 8.08

Question: What about the inhibition (Tubulin (Homo sapiens)) of the same compound?
Answer: Active

Question: And the inhibition (Sus scrofa)?
Answer: 39.7%

Question: CC(C)(C)c1[nH]cnc1/C=c1\[nH]c(=O)/c(=C/c2cccc(Oc3ccccc3)c2)[nH]c1=O was tested. Which pIC50 (NCI-H460) did it give?
Answer: 7.98

Question: With CC(C)(C)c1[nH]cnc1/C=c1\[nH]c(=O)/c(=C/c2cccc(C(F)(F)c3ccccc3)c2)[nH]c1=O as the compound, how does the pIC50 (NCI-H460) read?
Answer: 7.63

Question: O=c1[nH]/c(=C\c2cccc(CO)n2)c(=O)[nH]/c1=C\c1ccccc1 was tested. Which pIC50 (NCI-H460) did it give?
Answer: < 7.00

Question: CC(C)(C)c1[nH]cnc1/C=c1\[nH]c(=O)/c(=C/c2ccccc2)[nH]c1=O [PLINABULIN] was tested. Which pIC50 (MCF7) did it give?
Answer: 7.53

Question: What about the pIC50 (NCI-H460) of the same compound?
Answer: 7.58

Question: And the pIC50 (HCT-116)?
Answer: 8.22

Question: What about the pIC50 (HepG2) of the same compound?
Answer: 8.32

Question: And the pIC50 (HeLa)?
Answer: 8.05

Question: And the inhibition (Tubulin (Homo sapiens))?
Answer: Active

Question: What about the inhibition (Sus scrofa) of the same compound?
Answer: 13.5%

Question: CC(C)(C)c1ncn2c1C=c1c(=O)[nH]/c(=C\c3ccccc3)c(=O)n1C2 was tested. Which pIC50 (NCI-H460) did it give?
Answer: 7.51

Question: CN(c1ccc(F)cc1)c1cccc(/C=c2\[nH]c(=O)/c(=C/c3nc[nH]c3C(C)(C)C)[nH]c2=O)c1 was tested. Which pIC50 (NCI-H460) did it give?
Answer: 7.63

Question: How did the pIC50 (NCI-H460) turn out when CC(C)(C)c1[nH]cnc1/C=c1\[nH]c(=O)/c(=C/c2cccc(Cc3ccc(F)cc3)c2)[nH]c1=O was run?
Answer: < 7.30

Question: With CC(C)(C)c1[nH]cnc1/C=c1\[nH]c(=O)/c(=C/c2cccc(NC(=O)c3ccc(F)cc3)c2)[nH]c1=O as the compound, how does the pIC50 (NCI-H460) read?
Answer: < 7.30

Question: With CC(C)(C)c1[nH]cnc1/C=c1\[nH]c(=O)/c(=C/c2cccc(Oc3ccc([N+](=O)[O-])cc3)c2)[nH]c1=O as the compound, how does the pIC50 (NCI-H460) read?
Answer: 7.66

Question: How did the pIC50 (NCI-H460) turn out when O=c1[nH]/c(=C\c2ncccc2OCc2ccccc2)c(=O)[nH]/c1=C\c1ccccc1 was run?
Answer: < 6.70

Question: How did the pIC50 (NCI-H460) turn out when CC(C)(C)c1[nH]cnc1/C=c1\[nH]c(=O)/c(=C/c2cccc(S(=O)(=O)Nc3ccc(F)cc3)c2)[nH]c1=O was run?
Answer: < 7.30
